20 molecules from patent publication US11827628B2, “Compositions and methods for inhibition of the JAK pathway” (Rigel Pharmaceuticals, Inc., priority 2005, dated 2023) can be followed below.

Experiment [1] deals with IL-4 stimulated expression of CD23 in human Ramos B cells (JAK-1 and JAK-3). Put plainly: Assay for Ramos B-Cell Line Stimulated with IL-4 (CD23 upregulation, FACS). Type of experiment: cell-based. The conditions noted are these: Ramos B-cell line stimulated with IL-4, CD23 expression by FACS, read-out: IC50, Example 41. In a few lines:
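Human Ramos B cells (5×10^4 per point, RPMI 5% serum) pre-incubated 1 h at 37 °C with compound or DMSO, then stimulated with IL-4 at 50 units/mL final for 20-24 h. CD23 upregulation measured by anti-CD23-PE staining and flow cytometry; IC50 derived.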

The next experiment deals with Primary human T-cells. Put plainly: Primary Human T-Cell Proliferation Assay Stimulated with IL-2 (CellTiter-Glo). The experiment is classed as cell-based. The conditions noted are these: primary human T-cell proliferation stimulated with IL-2, read-out: IC50, Example 42. The text has this: The activity of the active compounds of the invention may further be characterized by assaying the effect of the 2,4-substituted pyrimidinediamine compounds described herein on the proliferative response of primary human T-cells. In this assay, primary human T-cells derived from peripheral blood and pre-activated through stimulation of the T-cell receptor and CD28, proliferate in culture in response to the cytokine Interleukin-2 (IL-2). This proliferative response is dependent on the activation of JAK1 and JAK3 tyrosine kinases, which phosphorylate and activate the transcription factor Stat-5. The primary human T-cells are incubated with the 2,4-substituted pyrimidinediamine compounds in the presence of IL-2 for 72 hours and at the assay endpoint intracellular ATP concentrations are measured to assess cell viability. A reduction in cell proliferation compared to control conditions is indicative of inhibition of the JAK kinase pathway. An exemplary assay of this type is described in greater detail in Example 42
Primary human T-cells derived from peripheral blood and pre-activated through stimulation of the T-cell receptor and CD28, proliferate in vitro in response to the cytokine Interleukin-2 (IL-2). This proliferative response is dependent on the activation of JAK-1 and JAK-3 tyrosine kinases, which phosphorylate and activate the transcription factor Stat-5.
Human primary T cells were prepared as follows. Whole blood was obtained from a healthy volunteer, mixed 1:1 with PBS, layered on to Ficoll Hypaque (Amersham Pharmacia Biotech, Piscataway, NJ, Catalog #17-1440-03) in 2:1 blood/PBS:ficoll ratio and centrifuged for 30 min at 4° C. at 1750 rpm. The lymphocytes at the serum: ficoll interface were recovered and washed twice with 5 volumes of PBS. The cells were resuspended in Yssel's medium (Gemini Bio-products, Woodland, CA, Catalog #400-103) containing 40 U/mL recombinant IL2 (R and D Systems, Minneapolis, MN, Catalog #202-IL (20 rig)) and seeded into a flask pre-coated with 1 μg/mL anti-CD3 (BD Pharmingen, San Diego, CA, Catalog #555336) and 5 μg/mL anti-CD28 (Immunotech, Beckman Coulter of Brea CA, Catalog #IM1376). The primary T-cells were stimulated for 3-4 days, then transferred to a fresh flask and maintained in RPMI with 10% FBS and 40 U/mL IL-2.
Primary T-cells were washed twice with PBS to remove the IL-2 and resuspended in Yssel's medium at 2×10^6 cells/mL. 50 μL of cell suspension containing 80 U/mL IL-2 was added to each well of a flat bottom 96 well black plate. For the unstimulated control, IL-2 was omitted from the last column on the plate. Compounds were serially diluted in dimethyl sulfoxide (DMSO, 99.7% pure, cell culture tested, Sigma-Aldrich, St. Louis, MO, Catalog No. D2650) from 5 mM in 3-fold dilutions, and then diluted 1:250 in Yssel's medium. 50 μL of 2× compound was added per well in duplicate and the cells were allowed to proliferate for 72 hours at 37° C.
Proliferation was measured using CellTiter-Glo® Luminescent Cell Viability Assay (Promega), which determines the number of viable cells in culture based on quantitation of the ATP present, as an indicator of metabolically active cells. The substrate was thawed and allowed to come to room temperature. After mixing the Cell Titer-Glo reagent and diluent together, 100 μL was added to each well. The plates were mixed on an orbital shaker for two minutes to induce lysis and incubated at room temperature for an additional ten minutes to allow the signal to equilibrate. Detection was performed using a Wallac Victor2 1420 multilabel counter purchased from Perkin Elmer, Shelton, CT The IC50 calculated based on the results of this assay are provided in TABLE XII.

pIC50: −log10 of the molar value. Counter-ions that a name gives are not always drawn. Like-named read-outs stand apart in the source and are kept apart here.

For `CN1CCN(S(=O)(=O)c2ccc(Nc3ncc(F)c(Nc4ccc(OCC#N)cc4)n3)cc2)CC1` [Compound I-18, N4-(4-Cyanomethoxy)phenyl-5-fluoro-N2-[4-(4-methylpiperazin-1-yl)sulfonyl]phenyl-2,4-pyrimidinediamine], the pIC50 in experiment [1] was 6.55; in the experiment on Primary human T-cells, 5.83.
Consider `COc1cc(Nc2ncc(F)c(Nc3ccc(OCC#N)c(C)c3)n2)ccc1S(N)(=O)=O` [Compound I-29, N2-(4-Aminosulfonyl-3-methoxy)phenyl-N4-(4-cyanomethoxy-3-methyl)phenyl-5-fluoro-2,4-pyrimidinediamine], for which the figures for the negative-log IC50 (pIC50) (in experiment [1]; in the experiment on Primary human T-cells) were 6.92 and 6.30, respectively.
Taken in the same sequence, the figures for `CCC(=O)NS(=O)(=O)c1cc(Nc2ncc(F)c(Nc3ccc(OCC#N)cc3)n2)ccc1C` [Compound I-30, N4-(4-Cyanomethyleneoxy)phenyl-5-fluoro-N2-(4-methyl-3-propionylaminosulfonyl)phenyl-2,4-pyrimidinediamine] were 5.26 and 5.45.
Turning to `CCC(=O)NS(=O)(=O)c1cc(Nc2ncc(F)c(Nc3ccc(OCC#N)c(F)c3)n2)ccc1C` [Compound I-49, N4-(4-Cyanomethoxy-3-fluorophenyl)-5-fluoro-N2-(4-methyl-3-propionylaminosulfonylphenyl)-2,4-pyrimidinediamine Sodium Salt], the pIC50 in experiment [1] (sodium salt) was 5.63; with Primary human T-cells (Homo sapiens, T-cell), 5.25.
As for `COc1cc(Nc2ncc(F)c(Nc3ccc(OC(C)(C)C#N)cc3)n2)ccc1S(N)(=O)=O` [Compound I-77, N2-(4-Aminosulfonyl-3-methoxy)phenyl-N4-[4-(1-cyano-1-methyl)ethoxy]phenyl-5-fluoro-2,4-pyrimidinediamine], the pIC50 in experiment [1] was 6.83; in the experiment with Primary human T-cells it was 5.79.
Turning to `N#CCC(=O)Nc1ccc(Nc2nc(Nc3cccc(S(N)(=O)=O)c3)ncc2F)cc1` [Compound I-78, N2-(3-Aminosulfonylphenyl)-N4-[4-(N-cyanoacetyl)aminophneyl]-5-fluoro-2,4-pyrimidinediamine], the pIC50 was 6.20 in experiment [1] and 5.92 in the experiment on Primary human T-cells.
Take `Cc1ccc(Nc2ncc(F)c(Nc3ccc(NC(=O)CC#N)cc3)n2)cc1S(N)(=O)=O` [Compound I-79, N2-(3-Aminosulfonyl-4-methylphenyl)-N4-[4-(N-cyanoacetyl)aminophneyl]-5-fluoro-2,4-pyrimidinediamine]: the pIC50 is 6.34 in experiment [1] and 5.97 in the experiment with Primary human T-cells.
Taken in the same sequence, the figures for `Cc1cc(Nc2nc(Nc3cccc(S(N)(=O)=O)c3)ncc2F)ccc1NC(=O)CC#N` [Compound I-80, N2-(3-Aminosulfonylphenyl)-5-fluoroN4-[3-methyl-4-(N-cyanoacetyl)aminophneyl]-2,4-pyrimidinediamine] were 6.44 and 6.33.
Taken in the same sequence, the figures for `Cc1cc(Nc2nc(Nc3ccc(C)c(S(N)(=O)=O)c3)ncc2F)ccc1NC(=O)CC#N` [Compound I-81, N2-(3-Aminosulfonyl-4-methylphenyl)-5-fluoroN4-[3-methyl4-(N-cyanoacetyl)aminophneyl]-2,4-pyrimidinediamine] were 6.44 and 6.02.
Consider `N#CCC(=O)Nc1ccc(Nc2nc(Nc3cccc(S(N)(=O)=O)c3)ncc2F)cc1Cl` [Compound I-82, N2-(3-Aminosulfonylphenyl)-N4-[3-chloro-4-(N-cyanoacetyl)aminophneyl]-5-fluoro-2,4-pyrimidinediamine], for which the pIC50 is 6.61 in experiment [1] and 5.86 in the experiment with Primary human T-cells.
`Cc1cc(Nc2nc(Nc3ccc(S(N)(=O)=O)cc3)ncc2F)cc(C)c1OCC(N)=O` [Compound I-114, N4-(4-Aminocarbonylmethoxy-3,5-dimethyl)phenyl-N2-(4-aminosulfonyl)phenyl-5-fluoro-2,4-pyrimidinediamine]: the results for the pIC50 (in experiment [1]; in the experiment on Primary human T-cells) were 6.35 and 5.17, respectively.
On to `Cc1ccc(Nc2ncc(F)c(Nc3ccc(OCC(=O)N(C)C)cc3)n2)cc1S(N)(=O)=O` [Compound I-130, N2-(3-Aminosulfonyl-4-methylphenyl)-N4-(4-dimethylaminocarbonylmethoxyphenyl)-5-fluoro-2,4-pyrimidinediamine], for which the pIC50 in experiment [1] (Homo sapiens, Ramos) was 6.22; with Primary human T-cells (Homo sapiens, T-cell), 5.76.
Taken in the same sequence, the figures for `Cc1ccc(Nc2ncc(F)c(Nc3ccc(OCC(=O)N(C)C)c(Cl)c3)n2)cc1S(N)(=O)=O` [Compound I-133, N2-(3-Aminosulfonyl-4-methylphenyl)-N4-(3-chloro-4-dimethylaminocarbonylmethoxyphenyl)-5-fluoro-2,4-pyrimidinediamine] were 6.63 and 5.87.
As for `Cc1cnc(Nc2ccc(Cl)c(S(N)(=O)=O)c2)nc1Nc1ccc(OCC(=O)N(C)C)c(F)c1` [Compound I-142, N2-(3-Aminosulfonyl-4-chlorophenyl)-N4-(4-dimethylaminocarbonylmethoxy-3-fluorophenyl)-5-methyl-2,4-pyrimidinediamine], the pIC50 in experiment [1] (Homo sapiens, Ramos) was 6.81; in the experiment with Primary human T-cells (Homo sapiens, T-cell), 6.07.
Regarding `CNC(=O)COc1ccc(Nc2nc(Nc3ccc(C)c(S(N)(=O)=O)c3)ncc2F)cc1` [Compound I-145, N2-(3-Aminosulfonyl-4-methylphenyl)-5-fluoro-N4-(4-methylaminocarbonylmethoxyphenyl)-2,4-pyrimidinediamine], the pIC50 was 6.27 in experiment [1] (Homo sapiens, Ramos) and 6.46 with Primary human T-cells (Homo sapiens, T-cell).
For `CNC(=O)COc1ccc(Nc2nc(Nc3cccc(S(N)(=O)=O)c3)ncc2F)cc1Cl` [Compound I-147, N2-(3-Aminosulfonylphenyl)-N4-(3-chloro-4-methylaminocarbonylmethoxyphenyl)-5-fluoro-2,4-pyrimidinediamine], the negative-log IC50 (pIC50) in experiment [1] (Homo sapiens, Ramos) is 7.10; in the experiment on Primary human T-cells (Homo sapiens, T-cell), 6.76.
Taken in the same sequence, the figures for `CNC(=O)COc1ccc(Nc2nc(Nc3ccc(C)c(S(N)(=O)=O)c3)ncc2F)cc1Cl` [Compound I-148, N2-(3-Aminosulfonyl-4-methylphenyl)-N4-(3-chloro-4-methylaminocarbonylmethoxyphenyl)-5-fluoro-2,4-pyrimidinediamine] were 7.21 and 6.62.
Regarding `CNC(=O)COc1ccc(Nc2nc(Nc3ccc(C)c(S(N)(=O)=O)c3)ncc2C)cc1Cl` [Compound I-151, N2-(3-Aminosulfonyl-4-methylphenyl)-N4-(3-chloro-4-methylaminocarbonylmethoxyphenyl)-5-methyl-2,4-pyrimidinediamine], the pIC50 was 7.21 in experiment [1] (Homo sapiens, Ramos) and 7.11 in the experiment on Primary human T-cells (Homo sapiens, T-cell).
Take `CNC(=O)COc1ccc(Nc2nc(Nc3ccc(Cl)c(S(N)(=O)=O)c3)ncc2F)cc1Cl` [Compound I-152, N2-(3-Aminosulfonyl-4-chlorophenyl)-N4-(3-chloro-4-methylaminocarbonylmethoxyphenyl)-5-fluoro-2,4-pyrimidinediamine]: the pIC50 was 6.52 in experiment [1] (Homo sapiens, Ramos) and 5.81 with Primary human T-cells (Homo sapiens, T-cell).
On the same counts, the results for `CNC(=O)COc1ccc(Nc2nc(Nc3ccc(Cl)c(S(N)(=O)=O)c3)ncc2C)cc1Cl` [Compound I-153, N2-(3-Aminosulfonyl-4-chlorophenyl)-N4-(3-chloro-4-methylaminocarbonylmethoxyphenyl)-5-methyl-2,4-pyrimidinediamine] are 6.94 and 6.48.
